Earlier results, collected in patent US7872044B2, “Inhibitors of chymase” (Janssen Pharmaceutica NV, priority 2006, dated 2011).

Test system: angiotensin II activity in human vascular extracts
Settings: background statement

## NCCCC[C@H](N[C@@H](CCc1ccccc1)C(=O)O)C(=O)N1CCC[C@H]1C(=O)O [lisinopril]
  angiotensin II activity inhibited: about 8%
